One data set is described as follows: physchem. The conditions noted are these: organic solvent or mixture.
For data set [1] the following is noted: 20° C.; cited from earlier work.

Here are results for ten molecules from patent US11931466B2, “Process for the preparation of drug loaded microparticles” (FERRING B.V., priority 2015, dated 2024).

≈ marks a conversion by molar mass, not a printed value. Structures can show the parent of a compound that is named as a salt.

Consider `O=C1CCc2ccc(OCCCCN3CCN(c4cccc(Cl)c4Cl)CC3)cc2N1` [Aripiprazole], for which the solubility in the data set “physchem” (20 °C) is 400 mg/mL (≈ 892 mM). Same read-out and setting: next, `CNCC[C@H](Oc1cccc2ccccc12)c1cccs1` [Duloxetine hydrochloride]: 400 mg/mL; `O=C(CCCN1CCC(O)(c2ccc(Cl)cc2)CC1)c1ccc(F)cc1` [Haloperidol]: 110 mg/mL (≈ 293 mM). Still for that read-out and setting: next, `COc1cc(C(C)=O)ccc1OCCCN1CCC(c2noc3cc(F)ccc23)CC1` [Iloperidone]: 200 mg/mL (≈ 469 mM); `CC12CC3CC(C)(C1)CC(N)(C3)C2` [Memantine hydrochloride]: 130 mg/mL.

On to `O=C1CC[C@@]2(O)[C@H]3Cc4ccc(O)c5c4[C@@]2(CCN3CC2CC2)[C@H]1O5` [Naltrexone hydrochloride], for which the solubility in “physchem” (benzyl alcohol, 20 °C) was found to be 800 mg/mL. As to `Cc1nc2n(c(=O)c1CCN1CCC(c3noc4cc(F)ccc34)CC1)CCCC2O` (stereo not shown) [Paliperidone], in the data set “physchem” (60 °C), the solubility stood at 233 mg/mL (≈ 546 mM). Take `Cc1nc2n(c(=O)c1CCN1CCC(c3noc4cc(F)ccc34)CC1)CCCC2` [Risperidone]: in the data set “physchem” (20 °C), the solubility was 500 mg/mL (≈ 1220 mM). In the case of `CCN(C)C(=O)Oc1cccc([C@H](C)N(C)C)c1` [Rivastigmine tartrate], the solubility in the data set “physchem” (20 °C) was 200 mg/mL. Consider glycofurol, for which the solubility in water result in data set [1] is reported as “soluble”.

By solubility is commonly meant the concentration that dissolves in the medium under given conditions.
